Measured values from patent US9012674B1, “Ethyl (2R)-2-acetamido-3-(4-methylbenzoylsulfanyl)propanoate and uses thereof” (Promentis Pharmaceuticals, Inc., priority 2013, dated 2015).

Key:
[1] = test system: human glial cells from brain astrocytoma (1321N1); assay: 14C-cystine uptake in human astrocytoma cell culture; assay type: cell-based; conditions: 100 μM (most effective concentration); three hour incubation; versus untreated control; average of three experiments
Experimental: The goal of these experiments was to determine ^14C-cystine uptake. The experiments were conducted as follows.
The screening of the compound was performed using an in vitro culture system of human glial cells from brain astrocytoma (1321N1). Cells were plated on 24 well plates coated with poly-D-lysine and laminin and grown in a balanced salt solution supplemented with 5% heat inactivated horse serum, 5% fetal bovine serum, 2 mM glutamine and glucose (total 21 mM). Cultures were maintained in humidified 5% CO2 incubators at 37° C. for 3-4 days before experiments were performed, at this time the cultures has formed a single confluent layer. For experiments, cultures were washed 3 times into a Na-free HEPES and HCO3^− buffered balanced salt solution. After 1 hour the test compounds are added. Following a three hour incubation, ^14C-cystine (0.025 mCi/mL) was then added for 20 minutes. Following the ^14C-cystine exposure, cultures were washed 3 times with ice cold HEPES buffered saline solution and dissolved in 250 μl sodium dodecyl sulfate (0.1%). An aliquot (200 μl) was removed and added to scintillation fluid for counting. Values were normalized to ^14C-cystine uptake in untreated controls on the same experimental plate. […]

[2] = test system: human glial cells from brain astrocytoma (1321N1); assay: 3H-glutamate release in human astrocytoma cell culture; assay type: cell-based; conditions: 300 μM (most effective concentration); at 3 hours; versus untreated control
Experimental: This assay also uses the cell culture system of human glial cells from brain astrocytoma (1321N1) described above. Initially, cells are washed with HBBSS, and ^3H-glutamate is added (PerkinElmer: 1 mCi/mL stock solution is diluted (30 μL+500 μL HBBSS) and 10 μL of diluted radiolabel is added to each well). Following a 1 hour incubation to load the cells with the labeled glutamate, the cells are washed again with HBBSS, and the drug is added. At 30, 90, and 180 minutes, 50 μL of extracellular media is sampled from each well and is measured using a Beckman LS 6500 scintillation counter.
Results of the ^14C-cystine uptake and ^3H-glutamate release by astrocytes treated with differing concentrations of Pro-4051, are presented in FIG. 1, as a percentage of the untreated control. […] This graph represents an average of three experiments run.

Solubility data = assay type: physicochemical; conditions: according to solubility data; read-out: concentration above which compound is not in solution (solubility)

- solubility (Solubility data): ≤ 316 µM
SMILES: CCOC(=O)[C@H](CSC(=O)c1ccc(C)cc1)NC(C)=O [Pro-4051, ethyl (2R)-2-acetamido-3-(4-methylbenzoylsulfanyl)propanoate]
- decrease in 14C-cystine uptake [1]: approximately 28%
- increase in 3H-glutamate release [2]: approximately 100%
